Calls of active or inactive are those of the source.
Columns and labels:
Cytochrome P450 2C19 = Cytochrome P450 2C19 (Homo sapiens, UniProt P33261); experiment: Cytochrome panel assay with activity outcomes. Panel member name: p450-cyp2c19 Compounds with AC50 equal or less than 10 uM are considered active; assay type: functional; conditions: read-out: AC50
Cytochrome P450 2D6 = Cytochrome P450 2D6 (Homo sapiens, UniProt P10635);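 also: CYP2D6 member of a cytochrome P450 panel assay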
Cytochrome P450 2C9 = Cytochrome P450 2C9 (Homo sapiens, UniProt P11712)
Cytochrome P450 3A4 = Cytochrome P450 3A4 (Homo sapiens, UniProt P08684);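 also: CYP3A4 tested as one member of a cytochrome P450 panel screen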
HEK293 [1] = experiment: cells; assay type: functional, cell-based; conditions: Homo sapiens
BJ [2] = experiment: BJ-TERT fibroblast viability loss – cell-based, RAS-independent, luminescence, dose response (AID 1933); assay type: functional; conditions: Homo sapiens
HEK293 [3] = experiment: cells; assay type: functional, cell-based; conditions: Homo sapiens; remark: listed apart in the source
[4] = biological target: Nucleotide-binding oligomerization domain-containing protein 2 (Homo sapiens, UniProt Q9HC29); experiment: inhibition of NOD2-driven NF-kB reporter – cell-based, luminescence, uHTS, HEK293 (AID 1566); assay type: functional
BJ [5] = experiment: cells; assay type: functional, cell-based; conditions: Homo sapiens
BJ [6] = experiment: BJ-TERT-LT-ST fibroblast viability loss – cell-based, RAS-independent, luminescence, dose response (AID 1935); assay type: functional; conditions: Homo sapiens;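 also: BJ fibroblasts immortalized with TERT plus LT and ST oncogenes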
[7] = DRD fibroblast viability loss – cell-based, non-viral oncogenic, luminescence, dose response (AID 1934); assay type: functional; conditions: Homo sapiens
HEK293 [8] = experiment: cells; assay type: functional, cell-based; conditions: Homo sapiens; remark: listed apart in the source
HEK293 [9] = experiment: inhibition of NOD1-driven NF-kB reporter – cell-based, luminescence, uHTS, primary screen (AID 1578); assay type: functional; conditions: Homo sapiens
[10] = biological target: T1, Replicative DNA helicase DnaB (Mycobacterium tuberculosis, UniProt P9WMR3); experiment: DnaB intein splicing inhibitors, dose response, biochemical, cell-free fluorescence (AID 449749); assay type: functional
T1 sequence (P9WMR3 whole entry): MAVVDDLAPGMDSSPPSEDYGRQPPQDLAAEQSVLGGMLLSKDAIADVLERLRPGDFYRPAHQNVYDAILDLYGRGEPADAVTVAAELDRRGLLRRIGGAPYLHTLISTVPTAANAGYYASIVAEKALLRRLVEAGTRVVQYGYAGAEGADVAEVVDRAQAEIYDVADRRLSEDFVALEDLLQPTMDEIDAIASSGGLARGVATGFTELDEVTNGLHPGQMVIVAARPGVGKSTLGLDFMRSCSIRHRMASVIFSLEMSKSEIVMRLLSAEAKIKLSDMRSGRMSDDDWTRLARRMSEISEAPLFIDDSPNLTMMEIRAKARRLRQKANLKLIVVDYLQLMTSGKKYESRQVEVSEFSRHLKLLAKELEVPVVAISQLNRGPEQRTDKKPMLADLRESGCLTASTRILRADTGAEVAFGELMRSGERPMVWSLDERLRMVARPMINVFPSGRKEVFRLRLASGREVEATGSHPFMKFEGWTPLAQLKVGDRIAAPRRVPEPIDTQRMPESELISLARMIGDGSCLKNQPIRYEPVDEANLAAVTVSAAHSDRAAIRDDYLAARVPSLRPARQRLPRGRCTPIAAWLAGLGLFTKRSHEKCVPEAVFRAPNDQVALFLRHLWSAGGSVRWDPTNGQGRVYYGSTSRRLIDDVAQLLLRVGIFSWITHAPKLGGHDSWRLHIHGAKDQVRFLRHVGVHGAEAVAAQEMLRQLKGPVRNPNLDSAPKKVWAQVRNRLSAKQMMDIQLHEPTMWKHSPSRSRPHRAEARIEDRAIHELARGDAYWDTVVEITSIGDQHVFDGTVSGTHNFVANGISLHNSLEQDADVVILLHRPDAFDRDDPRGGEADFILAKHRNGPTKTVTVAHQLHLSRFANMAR

HEK293 [11] = experiment: NOD2 signaling inhibitors in MDP-stimulated cells, cell-based, uHTS, luminescence (AID 2001); assay type: functional; conditions: Homo sapiens
Protein RecA = biological target: T2, Protein RecA (Mycobacterium tuberculosis, UniProt P9WHJ3); experiment: Fluorescence Cell-Free Homogeneous Dose Retest to Identify Inhibitors of RecA-Intein Splicing Activity. [Related pubchem assays (depositor defined):AID2097, AID2223, AID489010, AID492950]; assay type: functional
T2 sequence (P9WHJ3 whole entry): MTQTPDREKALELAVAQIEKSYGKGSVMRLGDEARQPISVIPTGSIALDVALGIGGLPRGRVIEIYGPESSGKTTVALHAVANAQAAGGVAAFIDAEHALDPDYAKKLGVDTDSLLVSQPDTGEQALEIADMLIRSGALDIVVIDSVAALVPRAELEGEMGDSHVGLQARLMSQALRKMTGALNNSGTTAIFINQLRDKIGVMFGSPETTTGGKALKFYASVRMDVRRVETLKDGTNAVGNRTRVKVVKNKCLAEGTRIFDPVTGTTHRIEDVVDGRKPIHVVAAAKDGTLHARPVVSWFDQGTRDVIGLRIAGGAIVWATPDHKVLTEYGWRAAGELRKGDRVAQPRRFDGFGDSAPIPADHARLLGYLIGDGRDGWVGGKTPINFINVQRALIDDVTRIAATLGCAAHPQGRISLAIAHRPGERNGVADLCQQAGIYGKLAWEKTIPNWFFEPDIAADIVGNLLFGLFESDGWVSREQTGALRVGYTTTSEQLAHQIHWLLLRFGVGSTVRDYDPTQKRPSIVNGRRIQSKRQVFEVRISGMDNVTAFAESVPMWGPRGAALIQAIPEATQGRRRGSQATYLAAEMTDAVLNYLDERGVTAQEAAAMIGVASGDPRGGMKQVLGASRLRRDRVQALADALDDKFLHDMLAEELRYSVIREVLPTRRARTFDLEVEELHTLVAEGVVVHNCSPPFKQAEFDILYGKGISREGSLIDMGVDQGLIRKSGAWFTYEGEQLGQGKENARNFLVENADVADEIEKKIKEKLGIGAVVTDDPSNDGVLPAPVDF

[12] = NIH3T3 cell viability loss – ATP luminescence, mouse fibroblasts, counter-screen, dose response (AID 2010); assay type: functional, cell-based;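 also: cells exposed to compound for about 90 hours before reading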
[13] = Trypanosoma cruzi growth suppression in host cells – NIH3T3 host cells, beta-gal luminescence, confirmation (AID 2044); assay type: functional, cell-based;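 also: intracellular parasites grown in NIH/3T3 mouse fibroblasts as host cells; luminescent beta-galactosidase reporter signal from transgenic T. cruzi replicating inside host cells; inhibitors lower the luminescence signal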
[14] = fluconazole-exposed Candida albicans growth modulators – fluorescence, retest, confirmation (AID 2467); assay type: functional, cell-based
[15] = MIN6 cell viability loss – mouse insulinoma, cytotoxicity control, dose response (AID 2122); assay type: functional;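 also: confirmatory high-throughput counterscreen run to flag cytotoxic compounds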
Protein Wnt-3a = Protein Wnt-3a (Mus musculus, UniProt P27467); experiment: antagonism of Wnt3a pathway luciferase reporter – Wnt-LIGHT cells, luminescence, selectivity assay for Gli-SUFU antagonist project, dose response (AID 651570); assay type: functional; conditions: read-out: IC50_Mean;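 also: Wnt-LIGHT reporter cells stimulated with conditioned medium from Wnt3a-producing cells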
[16] = decrease of insulin promoter-GFP reporter – imaging, high-content screening, mouse beta cells (AID 1628); assay type: functional; conditions: MIN6
[17] = NIH-3T3 fibroblast cytotoxicity, dose response, cytotoxicity control, cell-based, fluorescence, Alamar Blue, secondary assay (AID 2327); assay type: functional;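 also: NIH-3T3 mouse fibroblasts cultured with fluconazole at 8 µg/mL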
[18] = biological target: Kappa-type opioid receptor (Homo sapiens, UniProt P41145); experiment: SAR analysis of small molecule agonists of the kappa opioid receptor via a luminescent beta-arrestin assay - Set 3. [Related pubchem assays (depositor defined):AID1777, AID1785, AID1786, AID1966, AID2133, AID2136, AID2284, AID2500]; assay type: functional
[19] = Luminescence Cell-Based Dose Response HTS to Identify Inhibitors of 5'UTR Stem-Loop Driven Prion Protein mRNA Translation in H4 Neuroglioblastoma Cells. [Related pubchem assays: 1827 (Project Summary), 1813 (Primary HTS)]; assay type: functional
cells [20] = assay type: functional, cell-based
[21] = Luminescence Cell-Based Dose Retest to Confirm Inhibitors of Cancer Stem Cells. [Related pubchem assays (depositor defined):AID2717, AID2721]; assay type: functional; conditions: Homo sapiens
[22] = alpha-synuclein stem-loop luciferase translation blockers – H4 neuroglioma cells, luminescence, confirmation (AID 1988); assay type: functional, cell-based
[23] = luciferase reporter signal suppression in cells – H4 neuroglioma cells, luminescence, dose response (AID 1990); assay type: functional, cell-based
[24] = biological target: Disintegrin and metalloproteinase domain-containing protein 17 (Homo sapiens, UniProt P78536); experiment: exosite inhibitors of ADAM17, dose response, biochemical (AID 743260)
[25] = inhibition of ADAM10 peptide cleavage – biochemical, FRET peptide substrate, recombinant human ADAM10, selectivity assay for ADAM17 exosite inhibitor project, dose response (AID 743259);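 also: ADAM10 enzyme cleaving a FRET peptide substrate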
cells [26] = assay type: functional, cell-based; remark: listed apart in the source
[27] = test system: Streptococcus sp. 'group A'; experiment: Streptococcus pyogenes SK(-)GAS viability under kanamycin – luminescence, BacTiterGlo, confirmation, counter-screen for streptokinase expression inhibitor project, dose response (AID 1900); assay type: functional, organism-based
Streptokinase A = biological target: T3, Streptokinase A (Streptococcus pyogenes serotype M1, UniProt P10520); experiment: viability-normalized secreted streptokinase activity reduction – plasminogen activation absorbance, OD405, dose response (AID 1914); assay type: functional, Streptococcus pyogenes M1 GAS;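 also: secreted streptokinase activity via plasminogen activation per viability signal from cell pellet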
T3 sequence (P10520 whole entry): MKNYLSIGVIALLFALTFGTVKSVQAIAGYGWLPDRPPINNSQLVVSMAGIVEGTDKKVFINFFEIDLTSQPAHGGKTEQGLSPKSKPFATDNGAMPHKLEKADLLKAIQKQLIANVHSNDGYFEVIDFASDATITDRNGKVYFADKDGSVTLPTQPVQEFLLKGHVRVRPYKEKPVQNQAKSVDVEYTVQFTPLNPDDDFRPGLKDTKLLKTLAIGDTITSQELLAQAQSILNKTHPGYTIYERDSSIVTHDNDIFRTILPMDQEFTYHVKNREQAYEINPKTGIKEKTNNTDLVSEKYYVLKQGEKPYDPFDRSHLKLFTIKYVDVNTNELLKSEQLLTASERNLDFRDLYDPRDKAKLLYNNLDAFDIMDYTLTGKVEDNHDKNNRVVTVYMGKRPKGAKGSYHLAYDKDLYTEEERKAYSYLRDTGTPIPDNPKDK

Streptococcus = experiment: GAS UMAA2166 growth inhibition – luminescence, BacTiterGlo, counter-screen for streptokinase expression inhibitor project, dose response (AID 1915); assay type: functional, organism-based;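 also: potency for reduction of bacterial viability or growth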

Chain of Cytochrome P450 2D6 (P10635 whole entry): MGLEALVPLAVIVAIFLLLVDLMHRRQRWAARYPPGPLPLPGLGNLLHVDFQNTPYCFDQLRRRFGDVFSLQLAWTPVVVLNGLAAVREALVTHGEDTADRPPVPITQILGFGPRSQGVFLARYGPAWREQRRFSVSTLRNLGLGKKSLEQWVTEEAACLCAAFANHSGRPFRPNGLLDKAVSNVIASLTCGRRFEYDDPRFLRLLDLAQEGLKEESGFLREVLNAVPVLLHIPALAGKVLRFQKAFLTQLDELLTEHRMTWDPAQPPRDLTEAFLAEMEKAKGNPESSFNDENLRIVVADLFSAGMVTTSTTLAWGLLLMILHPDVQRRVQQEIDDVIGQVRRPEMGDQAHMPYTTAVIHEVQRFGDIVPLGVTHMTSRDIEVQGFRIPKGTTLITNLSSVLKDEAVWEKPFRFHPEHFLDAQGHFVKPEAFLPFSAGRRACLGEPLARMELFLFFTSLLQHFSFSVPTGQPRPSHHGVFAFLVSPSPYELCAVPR
Chain of Protein Wnt-3a (P27467 whole entry): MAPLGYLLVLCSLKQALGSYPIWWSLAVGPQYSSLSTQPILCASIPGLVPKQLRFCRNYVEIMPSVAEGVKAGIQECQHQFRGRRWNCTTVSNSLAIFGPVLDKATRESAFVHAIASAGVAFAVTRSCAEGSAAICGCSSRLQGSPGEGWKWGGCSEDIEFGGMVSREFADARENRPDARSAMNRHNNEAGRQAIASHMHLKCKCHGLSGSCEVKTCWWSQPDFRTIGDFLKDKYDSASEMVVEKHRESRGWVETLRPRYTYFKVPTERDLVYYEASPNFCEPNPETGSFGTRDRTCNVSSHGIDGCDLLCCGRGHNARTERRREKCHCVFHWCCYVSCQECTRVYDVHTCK
Chain of Cytochrome P450 2C19 (P33261 whole entry): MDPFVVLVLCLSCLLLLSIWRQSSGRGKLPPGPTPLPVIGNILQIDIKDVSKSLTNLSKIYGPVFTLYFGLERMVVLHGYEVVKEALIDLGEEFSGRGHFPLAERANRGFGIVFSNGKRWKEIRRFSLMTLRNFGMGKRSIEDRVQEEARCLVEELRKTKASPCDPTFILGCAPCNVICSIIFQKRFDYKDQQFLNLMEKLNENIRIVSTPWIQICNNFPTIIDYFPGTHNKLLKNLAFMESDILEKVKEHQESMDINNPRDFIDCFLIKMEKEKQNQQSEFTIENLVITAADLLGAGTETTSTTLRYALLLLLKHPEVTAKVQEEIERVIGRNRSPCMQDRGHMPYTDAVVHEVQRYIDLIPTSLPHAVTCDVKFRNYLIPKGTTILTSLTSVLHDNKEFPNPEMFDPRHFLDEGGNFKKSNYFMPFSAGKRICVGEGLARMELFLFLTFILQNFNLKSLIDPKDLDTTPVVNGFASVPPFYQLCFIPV
Chain of Kappa-type opioid receptor (P41145 whole entry): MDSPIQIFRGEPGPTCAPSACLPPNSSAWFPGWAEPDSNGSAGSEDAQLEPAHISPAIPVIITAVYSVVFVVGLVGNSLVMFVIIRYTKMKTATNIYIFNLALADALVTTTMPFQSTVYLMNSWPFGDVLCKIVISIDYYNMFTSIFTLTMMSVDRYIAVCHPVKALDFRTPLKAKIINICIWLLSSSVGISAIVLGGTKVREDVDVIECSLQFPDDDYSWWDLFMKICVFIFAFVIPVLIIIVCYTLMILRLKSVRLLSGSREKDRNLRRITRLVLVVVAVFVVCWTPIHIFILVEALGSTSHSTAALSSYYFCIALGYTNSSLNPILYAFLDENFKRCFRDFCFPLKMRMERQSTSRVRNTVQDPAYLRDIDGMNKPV
Chain of Nucleotide-binding oligomerization domain-containing protein 2 (Q9HC29 whole entry, the tested form may be a part): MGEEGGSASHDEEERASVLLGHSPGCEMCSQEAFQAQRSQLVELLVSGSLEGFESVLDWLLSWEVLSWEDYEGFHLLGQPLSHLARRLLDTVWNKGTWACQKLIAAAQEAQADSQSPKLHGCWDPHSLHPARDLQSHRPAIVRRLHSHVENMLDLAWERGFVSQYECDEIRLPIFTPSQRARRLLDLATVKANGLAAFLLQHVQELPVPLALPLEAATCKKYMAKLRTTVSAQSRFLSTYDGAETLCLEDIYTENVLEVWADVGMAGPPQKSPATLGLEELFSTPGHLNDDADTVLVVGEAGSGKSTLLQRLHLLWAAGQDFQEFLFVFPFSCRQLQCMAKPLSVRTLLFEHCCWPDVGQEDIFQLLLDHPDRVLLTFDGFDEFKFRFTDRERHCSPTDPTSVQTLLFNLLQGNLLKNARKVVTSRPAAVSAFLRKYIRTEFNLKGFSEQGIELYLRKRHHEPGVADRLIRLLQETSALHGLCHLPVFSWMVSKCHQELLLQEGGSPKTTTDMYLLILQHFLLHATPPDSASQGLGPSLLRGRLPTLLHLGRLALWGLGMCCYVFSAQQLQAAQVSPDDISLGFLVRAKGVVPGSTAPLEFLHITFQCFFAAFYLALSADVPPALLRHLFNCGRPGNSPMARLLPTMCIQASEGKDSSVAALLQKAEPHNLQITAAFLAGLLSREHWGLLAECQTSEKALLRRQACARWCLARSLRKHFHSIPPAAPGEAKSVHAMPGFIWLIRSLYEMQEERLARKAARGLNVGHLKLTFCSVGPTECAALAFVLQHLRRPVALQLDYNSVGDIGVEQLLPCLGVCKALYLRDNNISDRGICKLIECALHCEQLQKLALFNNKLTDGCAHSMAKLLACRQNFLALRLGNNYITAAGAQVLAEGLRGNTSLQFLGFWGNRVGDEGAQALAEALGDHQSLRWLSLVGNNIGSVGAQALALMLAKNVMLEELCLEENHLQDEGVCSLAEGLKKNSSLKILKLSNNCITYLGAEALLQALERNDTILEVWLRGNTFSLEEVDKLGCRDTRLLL
Chain of Cytochrome P450 3A4 (P08684 whole entry): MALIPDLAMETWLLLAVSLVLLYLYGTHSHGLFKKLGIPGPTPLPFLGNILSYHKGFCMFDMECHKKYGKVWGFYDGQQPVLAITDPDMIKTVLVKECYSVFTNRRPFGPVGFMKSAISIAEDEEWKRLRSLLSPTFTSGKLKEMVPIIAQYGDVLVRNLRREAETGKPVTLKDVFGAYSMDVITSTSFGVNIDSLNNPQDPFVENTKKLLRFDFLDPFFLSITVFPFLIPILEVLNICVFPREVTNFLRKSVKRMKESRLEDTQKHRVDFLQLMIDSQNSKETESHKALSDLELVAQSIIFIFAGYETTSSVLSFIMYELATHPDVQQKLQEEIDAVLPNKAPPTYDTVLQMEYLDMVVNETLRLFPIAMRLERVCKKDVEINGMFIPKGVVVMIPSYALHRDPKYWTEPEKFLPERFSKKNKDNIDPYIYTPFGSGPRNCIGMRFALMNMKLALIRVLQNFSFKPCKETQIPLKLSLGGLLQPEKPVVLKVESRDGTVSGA
Chain of Disintegrin and metalloproteinase domain-containing protein 17 (P78536 whole entry, the tested form may be a part): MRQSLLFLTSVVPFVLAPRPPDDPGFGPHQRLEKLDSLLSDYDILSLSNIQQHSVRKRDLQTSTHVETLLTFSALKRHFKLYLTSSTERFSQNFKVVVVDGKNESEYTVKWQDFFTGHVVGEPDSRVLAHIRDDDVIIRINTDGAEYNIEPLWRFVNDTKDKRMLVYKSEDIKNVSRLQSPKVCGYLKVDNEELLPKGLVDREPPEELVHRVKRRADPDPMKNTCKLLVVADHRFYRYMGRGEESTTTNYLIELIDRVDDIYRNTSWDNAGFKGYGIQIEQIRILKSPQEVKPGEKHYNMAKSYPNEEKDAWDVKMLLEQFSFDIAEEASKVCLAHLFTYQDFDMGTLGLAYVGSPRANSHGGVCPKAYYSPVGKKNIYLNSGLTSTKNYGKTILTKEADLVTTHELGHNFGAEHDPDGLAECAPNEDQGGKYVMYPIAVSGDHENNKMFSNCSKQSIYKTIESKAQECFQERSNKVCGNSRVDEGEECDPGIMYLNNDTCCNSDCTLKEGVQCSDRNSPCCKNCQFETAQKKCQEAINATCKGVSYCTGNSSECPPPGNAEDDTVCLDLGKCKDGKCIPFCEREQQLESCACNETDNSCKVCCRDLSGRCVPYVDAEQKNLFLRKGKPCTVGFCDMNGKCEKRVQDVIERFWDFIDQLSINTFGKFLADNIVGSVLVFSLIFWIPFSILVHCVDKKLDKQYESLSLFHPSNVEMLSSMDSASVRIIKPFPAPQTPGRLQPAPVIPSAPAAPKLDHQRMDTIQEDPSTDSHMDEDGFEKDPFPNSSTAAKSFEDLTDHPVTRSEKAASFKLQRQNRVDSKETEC
Chain of Cytochrome P450 2C9 (P11712 whole entry): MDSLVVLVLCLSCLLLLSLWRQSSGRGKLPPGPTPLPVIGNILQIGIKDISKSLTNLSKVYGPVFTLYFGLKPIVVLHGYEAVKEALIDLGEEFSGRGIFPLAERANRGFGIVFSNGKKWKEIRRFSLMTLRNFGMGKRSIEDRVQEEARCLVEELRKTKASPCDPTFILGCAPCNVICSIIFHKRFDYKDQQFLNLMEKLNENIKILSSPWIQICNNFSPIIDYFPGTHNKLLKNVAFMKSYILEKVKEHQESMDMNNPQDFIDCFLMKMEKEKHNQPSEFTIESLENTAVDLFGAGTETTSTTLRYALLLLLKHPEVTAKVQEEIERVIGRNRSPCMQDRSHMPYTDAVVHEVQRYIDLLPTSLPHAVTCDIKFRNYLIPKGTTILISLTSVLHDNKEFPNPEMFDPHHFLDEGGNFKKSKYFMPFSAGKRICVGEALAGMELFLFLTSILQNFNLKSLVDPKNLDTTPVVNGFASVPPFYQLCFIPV

## CCOC(=O)c1ccc(NC(=O)C(=O)NCC2CCCO2)cc1 (centres undefined)
Cytochrome P450 2C19
  AC50: 31.6 µM (inconclusive)
Cytochrome P450 2D6
  AC50: inconclusive
Cytochrome P450 2C9
  AC50: 25.1 µM (inconclusive)

## c1ccc2cc(Sc3ncnc4c3oc3ccccc34)ccc2c1
Cytochrome P450 3A4
  AC50: inconclusive

## Cc1cccc(CN2CCN(C(=O)CCl)CC2)c1
HEK293 [1]
  IC50: > 20 µM (inactive)
BJ [2]
  EC50: 9.64 µM (inconclusive)
HEK293 [3]
  IC50: > 20 µM (inactive)
[4]
  EC50: > 20 µM (inactive)
BJ [5]
  EC50: > 150 µM (not active)
BJ [6]
  EC50: > 150 µM (inconclusive)
[7]
  EC50: 31.2 µM (active)
HEK293 [8]
  IC50: 13.9 µM (active)
HEK293 [9]
  EC50: > 20 µM (inactive)
[10]
  AC50: 21.4 µM (active)
HEK293 [11]
  IC50: 16.7 µM (inactive)
Protein RecA
  EC50: 20.2 µM (active)

## CC(C)CCOC(=O)C[N+](C)(C)CCOC1CC2CCC1(C)C2(C)C (centres undefined)
[12]
  EC50: > 60 µM (not active)
[13]
  EC50: 0.286 µM (active)
[14]
  EC50: 1.3 µM (active)
[15]
  IC50: < 0.25 µM (active)
Protein Wnt-3a
  IC50: 5.09 µM (active)
[16]
  IC50: 0.643 µM (active)
[17]
  EC50: > 160 µM (inactive)

## Clc1ccc(CSc2nnc(-c3ccccn3)n2Cc2ccccc2Cl)cc1Cl
[18]
  EC50: 11.8 µM (inactive)

## O=C(NC(CSCc1ccccc1)C(=O)N/N=C/c1ccc(O)cc1O)c1ccc([N+](=O)[O-])cc1 (centres undefined)
[19]
  EC50: 10.9 µM (active)
Cells [20]
  EC50: > 350 µM (not active)
[21]
  AC50: 3 µM (active)
[22]
  EC50: 5.27 µM (active)
[23]
  EC50: 6.53 µM (inconclusive)
[24]
  IC50: > 69.5 µM (inactive)
[15]
  IC50: 3.07 µM (active)
[25]
  IC50: > 69.5 µM (inactive)
[16]
  IC50: 2.19 µM (active)
Cells [26]
  EC50: 9.52 µM (active)

## Cc1coc2c1C(=O)C(=O)c1c-2ccc2c(C)cccc12 [TANSHINONE I]
[27]
  EC50: 4.65 µM (active)
Streptokinase A
  EC50: > 150 µM (not active)
Streptococcus
  EC50: 7.63 µM (active)
[15]
  IC50: 2.8 µM (active)
[16]
  IC50: 3.91 µM (active)
